In patent US9657018B2, “Antagonists acting at multiple prostaglandin receptors for the treatment of inflammation” (Allergan, Inc., priority 2014, dated 2017):
Counter-ions that a name gives are not always drawn.

What was measured:
Assay type in all cases: cell-based
[1] = molecular target: T1, human prostanoid EP1 receptor (Homo sapiens, UniProt P34995); assay: FLIPR Ca2+ signaling antagonist assay, EP1 receptor stable cell line; details: human recombinant EP1 in HEK-293 EBNA cells; standard agonist PGE2; NA = no antagonism or Kb>=10,000 nM
T1 construct: expressed in transfected cells
T1 sequence (P34995 1-402): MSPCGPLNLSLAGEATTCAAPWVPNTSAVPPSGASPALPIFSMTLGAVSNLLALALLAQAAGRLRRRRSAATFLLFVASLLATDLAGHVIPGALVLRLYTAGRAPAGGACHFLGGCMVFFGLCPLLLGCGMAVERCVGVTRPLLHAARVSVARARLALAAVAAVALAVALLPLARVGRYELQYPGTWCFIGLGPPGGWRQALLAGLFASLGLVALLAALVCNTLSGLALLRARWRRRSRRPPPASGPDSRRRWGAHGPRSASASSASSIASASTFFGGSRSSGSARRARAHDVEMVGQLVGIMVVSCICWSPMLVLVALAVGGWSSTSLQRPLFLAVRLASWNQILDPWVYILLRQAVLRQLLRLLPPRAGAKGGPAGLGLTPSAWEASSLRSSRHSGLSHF
Protocol: (§1) The above compounds were tested for PG antagonist activity as follows using human recombinant prostanoid receptor (DP1, EP1-4, FP, IP and TP) stable cell lines:
(§2) In order to measure the response of Gs and Gi coupled prostanoid receptors as a Ca^2+ signal, chimeric G protein cDNAs were used. Stable cell lines over-expressing human prostanoid DP1, EP1-4, FP, IP, and TP receptors were established as follows:
(§3) Briefly, human prostanoid DP1, EP2, and EP4 receptor cDNAs were co-transfected with chimeric Gqs cDNA containing a haemagglutanin (HA) epitope; human prostanoid EP3 receptors were co-transfected with chimeric Gqi-HA; human EP1, FP, IP, and TP receptor cDNAs were expressed with no exogenous G-proteins. Gqs and Gqi chimeric cDNAs (Molecular Devices, Sunnyvale, Calif., U.S.A.), as well as cDNAs of prostanoid receptors, were cloned into a pCEP4 vector with a hygromycin B selection marker. Transfection into HEK-293 EBNA (Epstein-Barr virus nuclear antigen) cells was achieved by the FuGENE 6 transfection Reagent (Roche Applied Science, Indianapolis, Ind., USA). Stable transfectants were selected according to hygromycin resistance. Because Gqs and Gqi contained an HA epitope, G-protein expression was detected by Western blotting analysis using anti-mouse HA monoclonal antibody and horseradish peroxidase (HRP)-conjugated secondary antibody, while functional expression of prostanoid receptors was detected by FLIPR screening (Matias et al., 2004). These stable cell lines were validated using previously published antagonists at 10 μM against serial dilutions of standard agonists by FLIPR functional assays for Ca^2+ Signaling (as described below).
(§4) Ca^2+ signaling studies were performed using a FLIPR TETRA system (Molecular Devices, Sunnyvale, Calif., USA) in the 384-format. This is a high-throughput instrument for cell-based assays to monitor Ca^2+ signaling associated with GPCRs and ion channels. Cells were seeded at a density of 5×10^4 cells/well in BioCoat poly-D-lysine coated, black wall, clear bottom 384-well plates (BD Biosciences, Franklin lakes, NJ, USA) and allowed to attach overnight in an incubator at 37° C. The cells were then washed twice with HBSS-HEPES buffer (Hanks' balanced salt solution without bicarbonate and phenol red, 20 mM HEPES, pH 7.4) using an ELx405 Select CW Microplate Washer (BioTek, Winooski, Vt., USA). After 60 min of dye-loading in the dark using the Ca^2+-sensitive dye Fluo-4AM (Invitrogen, Carlsbad, Calif., USA), at a final concentration of 2×10^−6M, the plates were washed 4 times with HBSS-HEPES buffer to remove excess dye and leaving 50 μl of buffer in each well. The plates were then placed in the FLIPR TETRA instrument and allowed to equilibrate at 37° C. AGN-211377 was added in a 25 μl volume to each well to give final concentrations of 0.1 μl. M, 0.4M, 1 μM, 3 μl. M, 10 μl. M, and 30 μl. M; or 0.067 μM, 0.4M, 0.67 μM, and 1 μM for cells over-expressing TP receptors. After 4.5 minutes, a 7-point serial dilution of the standard agonist for the corresponding receptor, in a 25 μl volume was injected at the final concentrations from 10^−11M to 10^−5M in 10-fold serial dilution increments for cells expressing human recombinant DP1, EP1, EP2, EP3, EP4, FP, and IP receptors. The dose range for the standard agonist for human recombinant TP receptors was from 10^−12M to 10^−6M. HBSS-HEPES buffer was used as the negative control for the standard agonists. Cells were excited with LED (light emitting diode) excitation at 470-495 nm and emission was measured through an emission filter at 515-575 nm. Assay plates were read for 3.5 minutes using the FLIPR^TETRA. The peak increase in fluorescence intensity was recorded for each well. On each plate, negative controls, dose response of positive controls, and co-treatments of antagonist-agonist for each dose were in triplicates. Standard agonists were as follows: DP=BW 245C, EP1-EP4=PGE2, FP=17-phenyl-PGF2a, IP=Cicaprost, and TP=U-46619. […]

[2] = molecular target: T2, human prostanoid EP2 receptor (Homo sapiens, UniProt P43116); assay: FLIPR Ca2+ signaling antagonist assay, EP2 receptor stable cell line; set-up: key to FLIPR data EP2 (Kb): PAg = partial agonist; Ag = agonist; NA = not active; details: human recombinant EP2 + chimeric Gqs in HEK-293 EBNA cells; standard agonist PGE2; NA = no antagonism or Kb>=10,000 nM
T2 construct: expressed in transfected cells
Protocol: as §1, §2, §3, §4

[3] = molecular target: T3, human prostanoid EP3 receptor (Homo sapiens, UniProt P43115); assay: FLIPR Ca2+ signaling antagonist assay, EP3 receptor stable cell line; details: human recombinant EP3 + chimeric Gqi in HEK-293 EBNA cells; standard agonist PGE2; NA = no antagonism or Kb>=10,000 nM
T3 construct: expressed in transfected cells
T3 sequence (P43115 1-390): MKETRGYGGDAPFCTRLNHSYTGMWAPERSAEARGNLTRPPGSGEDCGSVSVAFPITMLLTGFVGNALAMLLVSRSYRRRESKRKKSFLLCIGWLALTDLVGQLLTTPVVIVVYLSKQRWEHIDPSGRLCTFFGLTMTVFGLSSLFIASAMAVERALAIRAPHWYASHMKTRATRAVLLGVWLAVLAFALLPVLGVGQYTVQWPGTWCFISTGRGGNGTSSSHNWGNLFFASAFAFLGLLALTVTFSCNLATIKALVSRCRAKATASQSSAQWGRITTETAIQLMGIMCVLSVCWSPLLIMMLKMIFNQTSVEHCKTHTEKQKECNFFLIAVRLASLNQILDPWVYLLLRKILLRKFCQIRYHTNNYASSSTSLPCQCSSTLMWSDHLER
Protocol: as §1, §2, §3, §4

[4] = molecular target: T4, human prostanoid EP4 receptor (Homo sapiens, UniProt P35408); assay: FLIPR Ca2+ signaling antagonist assay, EP4 receptor stable cell line; details: human recombinant EP4 + chimeric Gqs in HEK-293 EBNA cells; standard agonist PGE2; NA = no antagonism or Kb>=10,000 nM
T4 construct: expressed in transfected cells
Protocol: as §1, §2, §3, §4

T2 sequence (P43116 whole entry): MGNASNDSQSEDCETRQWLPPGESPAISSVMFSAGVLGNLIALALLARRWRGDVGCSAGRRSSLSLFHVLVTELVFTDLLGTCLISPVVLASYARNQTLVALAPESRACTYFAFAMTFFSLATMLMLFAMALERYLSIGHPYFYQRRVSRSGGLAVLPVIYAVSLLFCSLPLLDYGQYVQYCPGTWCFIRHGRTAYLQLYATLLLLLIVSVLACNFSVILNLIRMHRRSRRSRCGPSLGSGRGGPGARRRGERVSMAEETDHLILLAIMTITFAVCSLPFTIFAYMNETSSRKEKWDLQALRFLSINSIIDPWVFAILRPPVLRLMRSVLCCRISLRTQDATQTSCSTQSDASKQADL
T4 sequence (P35408 whole entry): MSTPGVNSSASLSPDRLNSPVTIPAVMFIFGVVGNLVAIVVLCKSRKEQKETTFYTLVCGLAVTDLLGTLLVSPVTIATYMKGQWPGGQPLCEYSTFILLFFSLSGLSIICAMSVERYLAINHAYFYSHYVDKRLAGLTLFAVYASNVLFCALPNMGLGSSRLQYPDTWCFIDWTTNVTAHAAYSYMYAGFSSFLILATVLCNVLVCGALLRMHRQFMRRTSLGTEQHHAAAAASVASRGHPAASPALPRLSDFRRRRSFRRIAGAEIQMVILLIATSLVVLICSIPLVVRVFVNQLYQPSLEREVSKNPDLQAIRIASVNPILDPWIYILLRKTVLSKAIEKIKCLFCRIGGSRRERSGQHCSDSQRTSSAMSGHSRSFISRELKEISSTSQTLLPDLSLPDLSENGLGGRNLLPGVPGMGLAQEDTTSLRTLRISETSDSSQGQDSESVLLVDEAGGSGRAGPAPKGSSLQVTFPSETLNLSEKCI

Kb [1]	Kb [2]	Kb [3]	Kb [4]	FLIPR data EP2 (Kb) [2]	Compound
> 10 µM	> 10 µM	> 10 µM	0.08 µM		CC(C)Cn1ncc2cc(Cl)cc(Cn3cnc4cc(C(=O)O)ccc43)c21 [Compound 50, 1-(5-Chloro-1-isobutyl-1H-indazol-7-ylmethyl)-1H-benzoimidazole-5-carboxylic acid]
2.3 µM	7 µM	8.1 µM	0.001 µM		CNc1nn(Cc2cc(Cl)cc3cnn(CC(C)C)c23)c2ccc(C(=O)O)cc12 [Compound 70, 1-[(5-Chloro-1-isobutyl-indazol-7-yl)methyl]-3-(methylamino)indazole-5-carboxylic acid]
> 10 µM	> 10 µM	> 10 µM	0.1 µM		CC(C)Cn1ncc2cc(F)cc(Cn3ncc4cc(C(=O)O)ccc43)c21 [Compound 43, 1-(5-Fluoro-1-isobutyl-1H-indazol-7-ylmethyl)-1H-indazole-5-carboxylic acid]
9.8 µM	> 10 µM	> 10 µM	0.09 µM		CC(C)Cn1ncc2cc(Cl)cc(Cn3ncc4cc(C(=O)O)cnc43)c21 [Compound 49, 1-(5-Chloro-1-isobutyl-1H-indazol-7-ylmethyl)-1H-pyrazolo[3,4-b]pyridine-5-carboxylic acid]
4 µM	> 10 µM	> 10 µM	0.08 µM		CC(C)Cn1ncc2cc(C(F)(F)F)cc(Cn3cnc4cc(C(=O)O)ccc43)c21 [Compound 55, 1-(1-Isobutyl-5-trifluoromethyl-1H-indazol-7-ylmethyl)-1H-benzoimidazole-5-carboxylic acid]
3 µM	> 10 µM	> 10 µM	0.33 µM		CC(C)n1ncc2cc(Br)cc(Cn3ncc4cc(C(=O)O)ccc43)c21 [Compound 46, 1-(5-Bromo-1-isopropyl-1H-indazol-7-ylmethyl)-1H-indazole-5-carboxylic acid]
> 10 µM	> 10 µM	> 10 µM	0.06 µM		CC(C)Cn1ncc2cc(Cl)cc(Cn3nc(N)c4cc(C(=O)O)ccc43)c21 [Compound 68, 3-Amino-1-[(5-chloro-1-isobutyl-indazol-7-yl)methyl]indazole-5-carboxylic acid]
5.7 µM	> 10 µM	> 10 µM	0.09 µM		Cc1nn(Cc2cc(Br)cc3cnn(CC(C)C)c23)c2ccc(C(=O)O)cc12 [Compound 53, 1-(5-Bromo-1-isobutyl-1H-indazol-7-ylmethyl)-3-methyl-1H-indazole-5-carboxylic acid]
1.5 µM		> 10 µM	0.028 µM	PAg	CC(C)Cn1ncc2cc(C(F)(F)F)cc(Cn3ncc4cc(C(=O)O)ccc43)c21 [Compound 44, 1-(1-Isobutyl-5-trifluoromethyl-1H-indazol-7-ylmethyl)-1H-indazole-5-carboxylic acid]
> 10 µM	> 10 µM	> 10 µM	0.28 µM		CC(C)Cn1ncc2cc(Cl)cc(Cn3cnc4cc(C(=O)O)cnc43)c21 [Compound 51, 3-(5-Chloro-1-isobutyl-1H-indazol-7-ylmethyl)-3H-imidazo[4,5-b]pyridine-6-carboxylic acid]
> 10 µM	> 10 µM	> 10 µM	0.2 µM		CC(C)Cn1ncc2cc(Cl)cc(Cc3ncc4cc(C(=O)O)ccn34)c21 [Compound 61, 3-[(5-Chloro-1-isobutyl-indazol-7-yl)methyl]imidazo[1,5-a]pyridine-7-carboxylic acid]
0.5 µM	5 µM	> 10 µM	1.7 µM		CCC(CC)Cn1ncc2cc(Br)cc(Cn3ncc4cc(C(=O)O)ccc43)c21 [Compound 47, 1-[5-Bromo-1-(2-ethyl-butyl)-1H-indazol-7-ylmethyl]-1H-indazole-5-carboxylic acid]
2.3 µM	> 10 µM	> 10 µM	0.022 µM		CC(C)Cn1ncc2cc(Br)cc(Cn3ncc4cc(C(=O)O)ccc43)c21 [Compound 42, 1-(5-Bromo-1-isobutyl-1H-indazol-7-ylmethyl)-1H-indazole-5-carboxylic acid]
0.73 µM	9.2 µM	> 10 µM	0.024 µM		CC(C)Cn1ncc2cc(Cl)cc(Cn3ncc4cc(C(=O)O)ccc43)c21 [Compound 41, 1-(5-Chloro-1-isobutyl-1H-indazol-7-ylmethyl)-1H-indazole-5-carboxylic acid]
9 µM	> 10 µM	> 10 µM	0.006 µM		CC(C)Cn1ncc2cc(OC(F)(F)F)cc(Cn3cnc4cc(C(=O)O)ccc43)c21 [Compound 56, 1-(1-Isobutyl-5-trifluoromethoxy-1H-indazol-7-ylmethyl)-1H-benzoimidazole-5-carboxylic acid]
0.6 µM	> 10 µM	3.4 µM	0.09 µM		CC(C)Cn1ncc2cc(Cl)cc(Cn3ccc4cc(C(=O)O)cnc43)c21 [Compound 52, 1-(5-Chloro-1-isobutyl-1H-indazol-7-ylmethyl)-1H-pyrrolo[2,3-b]pyridine-5-carboxylic acid]
> 10 µM	> 10 µM	> 10 µM	0.38 µM		Cc1nn(Cc2cc(Br)cc3cnn(CC(C)C)c23)c2ncc(C(=O)O)cc12 [Compound 54, 1-(5-Bromo-1-isobutyl-1H-indazol-7-ylmethyl)-3-methyl-1H-pyrazolo[3,4-b]pyridine-5-carboxylic HCl salt]
